Values of other authors in US5349105A, “Alkyl, alkoxy and thioalkoxy substituted diphenyl acetylenes having retinoid like activity” (Allergan, Inc., priority 1993, dated 1994).

Test system: ornithine decarboxylase (ODC)
Settings: literature background

Row | Compound | inhibition of induction of ODC activity by TPA (in words) (retinoic acid) | induction of ODC activity (in words) (TPA as inducer)
1 | CC1=C(/C=C/C(C)=C/C=C/C(C)=C/C(=O)O)C(C)(C)CCC1 [Retinoic acid] | inhibits this induction of ODC activity by TPA | 
2 | CCCCCCCCCCCCCC(=O)O[C@@H]1[C@@H](C)[C@@]2(O)[C@@H](C=C(CO)C[C@]3(O)C(=O)C(C)=C[C@@H]23)[C@@H]2C(C)(C)[C@]12OC(C)=O [12-0-tetradecanoyl-phorbol-13-acetate] |  | induces ODC activity
